Assay results reported in article PMC9619376 (iScience, 2022).

Columns and labels:
[1] = molecular target: EBOV VP35_75-185 (native, non GFP-tagged) (Ebola virus - Mayinga, Zaire, 1976, UniProt Q05127); format: binding
[2] = molecular target: GFP 10M2/11M4 EBOV VP35_75-185 (EBOV VP35 oligomerization domain) (Ebola virus - Mayinga, Zaire, 1976, UniProt Q05127); assay: biochemical; format: binding
Sequence of GFP 10M2/11M4 EBOV VP35_75-185 (EBOV VP35 oligomerization domain) (Q05127 75-185 limits assumed): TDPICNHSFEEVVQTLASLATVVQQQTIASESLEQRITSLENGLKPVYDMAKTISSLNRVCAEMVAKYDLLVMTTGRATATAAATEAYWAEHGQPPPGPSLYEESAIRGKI

Sequence of EBOV VP35_75-185 (native, non GFP-tagged) (Q05127 75-185 limits assumed): as above

Row | SMILES | Tm at 100 μM compound (70.8 at 0 μM) [1] [°C] | IC50 [2] [µM]
1 | Brc1c(Br)c(Br)c2[nH]nnc2c1Br [TBBT, 4,5,6,7-Tetrabromobenzotriazole] | 66.9 | 32.5
2 | O=c1c(O)c(-c2cc(O)c(O)c(O)c2)oc2cc(O)cc(O)c12 [Myricetin] | 73.5 | 64.4
